Data as given in paper PMC10714400, “Antimicrobial Peptide–Peptoid Hybrids with and without Membrane Disruption” (ACS Infectious Diseases, 2023).
Values after ≈ are worked out from the molar mass of the structure shown. Where a SMILES comes first, the peptide text is derived from it. [ ]: non-standard residue; d: D form. Nleu = CC(C)CNCC(=O)O; Nlys = NCCCCNCC(=O)O

Legend:
[1] = system: human red blood cells (hRBC); assay: Minimum hemolytic concentration (MHC); format: cell-based
Source text: We also measured minimal hemolysis concentrations (MHC) on human red blood cells by serial 2-fold dilution as an indication of toxicity against eukaryotic cells (Table 1).

P. aeruginosa PAO1 = system: P. aeruginosa PAO1
Protocol: (§1) Antimicrobial activity was assayed for all the peptide–peptoids against P. aeruginosa PAO1, K. pneumoniae NCTC418, E. coli W3110, A. baumannii ATCC 19606, methicillin-resistant S. aureus COL (MRSA), and for selected peptides on P. aeruginosa PA14 and the polymyxin-B-resistant derivatives PA14 4.13, PA14 4.18, PA14 2P4, as well as the clinical isolates ZEM-1A and ZEM9A, K. pneumoniae OXA-48, S. aureus Newman, Enterobacter cloacae, Stenotrophomonas maltophilia, Burkholderia cenocepacia, and Staphylococus epidermidis. To determine the Minimal Inhibitory Concentration (MIC), the Broth Microdilution method was used.[72] A colony of bacteria was picked and grown in LB medium overnight at 37 °C.
(§2) To each well was finally added 4 μL of the diluted bacterial suspension (see above), corresponding to approximately 5 × 10^5 CFU. For each test, two columns of the plate were kept for sterility control (medium only), growth control (medium with bacterial inoculum, no compound). The positive control, Polymyxin B (starting with a concentration of 16 μg/mL) in MH medium with bacterial inocula, was introduced in the two lines of the plate. The plates were incubated at 37 °C for ca. 18 h under static conditions. Next, 15 μL of 3-(4,5-dimethylthiazol-2-yl)-2,5-diphenyltetrazolium bromide (MTT)[73] (1 mg/mL in sterilized MilliQ deionized water) were added to each well, and the plates were incubated for 20–30 min at room temperature. The minimal inhibitory concentration (MIC) was defined as the lowest concentration of the compound that inhibits the visible growth of the tested bacteria (yellow) with the unaided eye.

S. aureus COL (MRSA) = system: S. aureus COL (MRSA)
Protocol: as §1, §2

K. pneumoniae NCTC418 = system: K. pneumoniae NCTC418
Protocol: as §1, §2

PA14 4.13 (phoQ) = settings: CSV; […] MH at pH 8.5
Protocol: as §1, §2

PA14 2P4 (pmrB) = settings: CSV; […] MH at pH 8.5
Protocol: as §1, §2

E. coli W3110 = system: E. coli W3110
Protocol: as §1, §2

A. baumannii ATCC19606 = system: A. baumannii ATCC19606
Protocol: as §1, §2

PA14 4.18 (pmrB) = settings: […] MH at pH 8.5
Protocol: as §1, §2

[2] = Circular dichroism, α-helical content; format: physicochemical; settings: 0.1 mg/mL; for CD %α with 5 mM DPC: 10 mM phosphate buffer pH 7.4, 5 mM DPC; for CD %α with 20% TFE: 10 mM phosphate buffer pH 7.4, 20% TFE
S. aureus Newman = settings: Table S3; […] MH at pH 8.5
Protocol: as §1
as §2, with “The plates were incubated at 37 °C for ca. 18 h under static conditions.” left out

P. aeruginosa PA14 = settings: Table S3; […] MH at pH 8.5, 16-20 hours at 37 °C
Protocol: as §1
as §2, with “The plates were incubated at 37 °C for ca. 18 h under static conditions.” left out

With `CC(C)C[C@H](NC(=O)[C@H](CCCCN)NC(=O)[C@@H](N)CCCCN)C(=O)N[C@@H](CC(C)C)C(=O)N[C@@H](CCCCN)C(=O)N(CC(=O)N(CC(=O)N(CCCCN)CC(=O)N(CC(=O)N(CC(=O)N(CC(N)=O)CC(C)C)CC(C)C)CC(C)C)CC(C)C)CC(C)C` [EB4, KKLLKllklll] (H-KKLLK[Nleu][Nleu][Nlys][Nleu][Nleu][Nleu]-NH2) the Hemolysis [1] was “none of them showed any measurable hemolysis”, the MHC [1] was over 2000 µg/mL and the “MIC P. aeruginosa PAO1, full MH at pH 7.4” value (P. aeruginosa PAO1; PAO1, 4 h, pH 7.4) was over 32 ug/mL. For the same compound, the “MIC P. aeruginosa PAO1 […] 8.5” value (P. aeruginosa PAO1; Table S2, […] MH, pH 8.5) was 4 mg/L (≈ 3.03 µM), the “MIC P. aeruginosa PAO1 Full MH 7.4” value (P. aeruginosa PAO1; Table S2, full MH, pH 7.4) was over 32 mg/L and the “MIC S. aureus COL (MRSA), full MH at pH 7.4” value (S. aureus COL (MRSA); COL, 4 h, pH 7.4) was over 32 ug/mL. For the same compound, the “MIC S. aureus COL (MRSA) […] 7.4” value (S. aureus COL (MRSA); Table S2, […] MH, pH 7.4) was 32 mg/L (≈ 24.2 µM), the “MIC S. aureus COL (MRSA) Full MH 7.4” value (S. aureus COL (MRSA); Table S2, full MH, pH 7.4) was over 32 mg/L and the “MIC S. aureus COL (MRSA) Full MH 8.5” value (S. aureus COL (MRSA); Table S2, full MH, pH 8.5) was 16 mg/L (≈ 12.1 µM). The “MIC K. pneumoniae NCTC418, full MH at pH 7.4” value (K. pneumoniae NCTC418; NCTC418, 4 h, pH 7.4) was over 32 ug/mL, the “MIC K. pneumoniae NCTC418 […] 7.4” value (K. pneumoniae NCTC418; Table S2, […] MH, pH 7.4) was over 32 mg/L and the “MIC K. pneumoniae NCTC418 […] 8.5” value (K. pneumoniae NCTC418; Table S2, […] MH, pH 8.5) was 32 mg/L (≈ 24.2 µM). The “MIC K. pneumoniae NCTC418 Full MH 7.4” value (K. pneumoniae NCTC418; Table S2, full MH, pH 7.4) was over 32 mg/L, the “MIC K. pneumoniae NCTC418 Full MH 8.5” value (K. pneumoniae NCTC418; Table S2, full MH, pH 8.5) was 16 mg/L (≈ 12.1 µM) and the “MIC P. aeruginosa PA14 4.13, […] MH at pH 8.5” value (PA14 4.13 (phoQ)) was 8 ug/mL. For the same compound, the “MIC P. aeruginosa PA14 2P4, […] MH at pH 8.5” value (PA14 2P4 (pmrB)) was 16 ug/mL, the “MIC E. coli W3110, […] MH at pH 7.4” value (E. coli W3110; CSV, […] MH at pH 7.4) was 8 ug/mL and the “MIC E. coli W3110, full MH at pH 7.4” value (E. coli W3110; CSV, full MH at pH 7.4) was over 32 ug/mL. For the same compound, the “MIC E. coli W3110, full MH at pH 8.5” value (E. coli W3110; CSV, full MH at pH 8.5) was 8 ug/mL, the “MIC E. coli W3110 […] 7.4” value (E. coli W3110; Table S2, […] MH, pH 7.4) was 8 mg/L (≈ 6.05 µM) and the “MIC E. coli W3110 […] 8.5” value (E. coli W3110; Table S2, […] MH, pH 8.5) was 2 mg/L (≈ 1.51 µM). For the same compound, the “MIC E. coli W3110 Full MH 7.4” value (E. coli W3110; Table S2, full MH, pH 7.4) was over 32 mg/L, the “MIC E. coli W3110 Full MH 8.5” value (E. coli W3110; Table S2, full MH, pH 8.5) was 8 mg/L (≈ 6.05 µM) and the “MIC A. baumannii ATCC19606, full MH at pH 7.4” value (A. baumannii ATCC19606; ATCC19606, 4 h, pH 7.4) was over 32 ug/mL. For the same compound, the “MIC A. baumannii ATCC19606 […] 7.4” value (A. baumannii ATCC19606; Table S2, […] MH, pH 7.4) was 32 mg/L (≈ 24.2 µM), the “MIC A. baumannii ATCC19606 […] 8.5” value (A. baumannii ATCC19606; Table S2, […] MH, pH 8.5) was 16 mg/L (≈ 12.1 µM) and the “MIC A. baumannii ATCC19606 Full MH 7.4” value (A. baumannii ATCC19606; Table S2, full MH, pH 7.4) was over 32 mg/L. For the same compound, the “MIC A. baumannii ATCC19606 Full MH 8.5” value (A. baumannii ATCC19606; Table S2, full MH, pH 8.5) was 16 mg/L (≈ 12.1 µM), the “MIC P. aeruginosa PA14 4.18, […] MH at pH 8.5” value (PA14 4.18 (pmrB); CSV) was 24 ug/mL and the “MIC P. aeruginosa PA14 4.18” value (PA14 4.18 (pmrB); Table S3) was 16 to 32 mg/L. For the same compound, the “CD %α with 5 mM DPC” value ([2]; DichroWeb, Contin-LL) was 9%, the “CD %α with 20% TFE” value ([2]; DichroWeb, Contin-LL) was 11% and the “CD %α with 5 mM DPC” value ([2]; Table S2) was 9%. For the same compound, the “CD %α with 20% TFE” value ([2]; Table S2) was 11%, the “MIC S. aureus Newman” value (S. aureus Newman) was 8 mg/L (≈ 6.05 µM) and the “MIC P. aeruginosa PA14” value (P. aeruginosa PA14) was 4 mg/L (≈ 3.03 µM).
